US20220409727A1, “Metal Complexes Bearing Bisstyryl-Bipyridine Ligand and Their Use as Photosensitizer Agent in One and Two-Photon Photodynamic Therapy” (Paris Sciences et Lettres, priority 2019, published 2022)
Like-named read-outs stand apart in the source and are kept apart here.

Legend:
[1] = test system: mouse colon carcinoma (CT-26) cells; test: (Photo-)cytotoxicity on 2D cell monolayers, resazurin assay, CT-26; details: for PI (480 nm): CT-26, dark vs 480 nm (10 min, 3.1 J/cm^2); for PI (540 nm): CT-26, dark vs 540 nm (40 min, 9.5 J/cm^2); for IC50: compounds 1-3 as chloride salts
[2] = test system: human glioblastoma astrocytoma (U373) cells
[3] = test system: non-cancerous retinal pigment epithelium (RPE-1) cells; test: (Photo-)cytotoxicity on 2D cell monolayers, resazurin assay, RPE-1; details: for PI (480 nm): RPE-1, dark vs 480 nm (10 min, 3.1 J/cm^2); for PI (540 nm): RPE-1, dark vs 540 nm (40 min, 9.5 J/cm^2);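 as to all read-outs here: cells exposed to compound 4 h, medium exchanged, then irradiated or kept dark, 44 h further growth, viability by resorufin fluorescence (ex 540 nm, em 590 nm)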
Description: The human glioblastoma astrocytoma (U373) cell line was cultured in MEM medium supplemented with 10% FBS, 1% NEAA (non-essential amino-acids) and 1% penicillin/streptomycin. […] The human retinal epithelial cells (RPE-1, non-cancerous cells immortalized with hTERT) were cultured in DMEM-F12 medium supplemented with 10% FBS and 1% penicillin/streptomycin. All cell lines were obtained from the American Type Culture Collection (ATCC) and cultured at 37° C. and 5% CO2. Before an experiment, the cells were passaged three times.
The cytotoxicity of the compounds was assessed by measuring cell viability using a fluorometric resazurin assay. The cultivated cells were seeded in triplicates in 96 well plates with a density of 4000 cells per well in 100 μL of media. After 24 h, the medium was removed and the cells were treated with increasing concentrations of the compound diluted in cell media achieving a total volume of 200 μL. The cells were incubated with the compound for 4 h. After this time, the media was removed and replaced with 200 μL of fresh medium. For the phototoxicity studies, the cells were exposed to light with an Atlas Photonics LUMOS BIO irradiator. Each well was constantly illuminated with either a 480 nm or 540 nm irradiation. During this time, the temperature was maintained constantly at 37° C. The cells were grown in the incubator for additional 44 h. For the determination of the dark cytotoxicity, the cells were not irradiated and after the medium exchange directly incubated for 44 h. After this time, the medium was replaced with fresh medium containing resazurin with a final concentration of 0.2 mg/mL. After 4 h incubation, the amount of the fluorescent product resorufin was determined upon excitation at 540 nm and measurement its emission at 590 nm using a SpectraMax M2 Microplate Reader (Molecular Devices).
The obtained data was analyzed with the GraphPad Prism software.

[4] = Singlet oxygen measurement, direct evaluation (1O2 luminescence at 1270 nm); format: physicochemical
Method in brief: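 Air-saturated CH3CN or D2O solutions (A450 = 0.2) irradiated with 450 nm LED at varied intensities; 1O2 emission at 1270 nm recorded 1100–1400 nm with cooled germanium detector. Quantum yield from slope of integrated peak area versus intensity, absorbance-corrected, relative to Rose Bengal (Φ=76%).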

[5] = test system: HeLa MCTS; test: (Photo-)cytotoxicity on 3D multicellular tumor spheroids (ATP, CellTiter-Glo 3D); format: cell-based, human; details: for phototoxicity in HeLa MCTS: 1 Photon and 2 Photons irradiation, compared with compounds 4-6, 8, 10; for PI (1-Photon): dark vs 1-Photon irradiation (500 nm, 10 J/cm^2); for PI (2-Photon): dark vs 2-Photon irradiation (800 nm, 10 J/cm^2)
Method in brief: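 HeLa spheroids grown on agarose from 3000 cells/well over 2–3 days, then treated with compound (2% DMSO) for 12 h. Spheroids kept dark or irradiated at 500 nm one-photon or 800 nm two-photon (10 J/cm^2 each), then incubated 48 h more. Viability read as ATP by luminescence.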

[6] = Emission measurement in CH3CN; format: physicochemical; details: room temperature, excitation at 355 nm
[7] = test system: human glioblastoma astrocytoma (U373) cells; test: (Photo-)cytotoxicity on 2D cell monolayers, resazurin assay, U373; details: for PI (480 nm): U373, dark vs 480 nm (10 min, 3.1 J/cm^2); for PI (540 nm): U373, dark vs 540 nm (40 min, 9.5 J/cm^2); for IC50: compounds 1-3 as chloride salts
[8] = read-out: IC50 540 nm (40 min, 9.5 J/cm^2), CT-26, irradiation 540 nm (40 min, 9.5 J/cm^2)
[9] = read-out: IC50 dark, CT-26, dark, 4 h incubation
[10] = 1-Photon irradiation (500 nm, 10 J/cm^2), read-out: IC50 1-Photon irradiation (500 nm, 10 J/cm^2)
[11] = 2-Photon irradiation (800 nm, 10 J/cm^2, section interval of 5 μm), read-out: IC50 2-Photon irradiation (800 nm, 10 J/cm^2)
[12] = dark, 12 h incubation, read-out: IC50 dark
[13] = read-out: IC50 480 nm (10 min, 3.1 J/cm^2), U373, irradiation 480 nm (10 min, 3.1 J/cm^2)
[14] = read-out: IC50 dark, U373, dark, 4 h incubation

Row | Compound | PI (480 nm) [1] | PI (540 nm) [1] | IC50 [1, 8] | IC50 [1, 9] | IC50 [2] | PI (480 nm) [3] | PI (540 nm) [3] | Singlet oxygen quantum yield, direct 450 nm CH3CN [4] | IC50 [5, 10] | phototoxicity in HeLa MCTS [5] | IC50 [5, 11] | PI (1-Photon) [5] | PI (2-Photon) [5] | IC50 [5, 12] | λem/nm (Emission maximum) [6] | PI (480 nm) [7] | PI (540 nm) [7] | IC50 [7, 13] | IC50 [7, 14]
1 | COc1ccc(C=Cc2ccnc(-c3cc(C=Cc4ccc(OC)cc4)ccn3)c2)cc1.F[P-](F)(F)(F)(F)F.F[P-](F)(F)(F)(F)F.[Ru+2].c1ccc(-c2ccnc3c2ccc2c(-c4ccccc4)ccnc23)cc1.c1ccc(-c2ccnc3c2ccc2c(-c4ccccc4)ccnc23)cc1 [Compound 11, [Ru(4,7-Diphenyl-1,10-phenanthroline)2((E,E′)-4,4′-Bis[p-methoxystyryl]-2,2′-bipyridine)][PF6]2] | 17.2 | 14.3 | 0.6 ± 0.2 µM | 8.6 ± 0.9 µM | 0.7 ± 0.3 µM | 23.1 | 29.7 | 66% | 3.8 ± 0.4 µM | much higher phototoxicity | 0.8 ± 0.5 µM | 7.7 | 36.6 | 29.3 ± 2.9 µM | 663 nm | 20.6 | 26.4 | 0.9 ± 0.2 µM | 18.5 ± 1 µM
2 | [Ru(bipy)2((E,E′)-4,4′-Bis[p-(N,N-methoxy)styryl]-2,2′-bipyridine)][PF6]2 [Compound 7] | >142.9 | >111.1 | 0.9 ± 0.3 µM | > 100 µM | 13.5 ± 1.6 µM | >32.3 | >11.9 | 75% | 6.8 ± 0.2 µM | much higher phototoxicity | 1.4 ± 0.2 µM | >44.1 | >214.3 | > 300 µM | 664 nm | >9.5 | >7.4 | 10.5 ± 1.7 µM | > 100 µM
